Source: patent US20070249670A1, “Glycogen Phosphorylase Inhibitor Compounds and Pharmaceutical Compositions Thereof” (SMITHKLINE BEECHAM CORPORATION, priority 2004, published 2007)

Target: T1, human liver glycogen phosphorylase a (HLGPa) (Homo sapiens, UniProt P06737)
T1 construct: creating a full-length cDNA fused at the 5′ end to codons for methionine-glycine-alanine-histidine; 6xHis tag (leader Met-Gly-Ala-His6-Gly-Gly) (N); made in house; host or cells: E. coli (bacterial expression plasmid pTXK1007LTev)
T1 sequence (P06737 2-847 limits assumed): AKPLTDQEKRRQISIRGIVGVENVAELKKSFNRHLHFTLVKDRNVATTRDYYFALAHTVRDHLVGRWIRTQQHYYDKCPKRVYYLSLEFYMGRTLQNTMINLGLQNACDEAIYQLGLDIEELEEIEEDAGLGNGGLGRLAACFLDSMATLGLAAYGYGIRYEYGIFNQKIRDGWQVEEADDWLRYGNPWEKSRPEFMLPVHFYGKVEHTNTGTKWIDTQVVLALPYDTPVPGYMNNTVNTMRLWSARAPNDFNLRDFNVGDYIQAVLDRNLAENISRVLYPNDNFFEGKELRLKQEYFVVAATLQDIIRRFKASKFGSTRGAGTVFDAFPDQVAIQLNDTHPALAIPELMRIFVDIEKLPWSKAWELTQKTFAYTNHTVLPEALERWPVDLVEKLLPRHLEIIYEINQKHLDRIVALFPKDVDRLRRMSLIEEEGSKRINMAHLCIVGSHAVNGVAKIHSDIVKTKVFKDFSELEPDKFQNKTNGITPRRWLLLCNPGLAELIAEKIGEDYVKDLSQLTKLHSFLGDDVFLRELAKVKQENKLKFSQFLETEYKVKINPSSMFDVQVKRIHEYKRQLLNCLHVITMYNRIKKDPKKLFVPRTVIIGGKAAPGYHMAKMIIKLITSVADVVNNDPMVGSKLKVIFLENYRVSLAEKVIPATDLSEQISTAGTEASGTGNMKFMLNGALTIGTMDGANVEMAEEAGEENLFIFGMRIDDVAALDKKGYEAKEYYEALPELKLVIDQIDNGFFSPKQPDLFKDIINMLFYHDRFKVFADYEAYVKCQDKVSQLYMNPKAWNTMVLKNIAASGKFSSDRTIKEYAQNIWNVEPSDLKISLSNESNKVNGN
Test: Human liver glycogen phosphorylase a enzymatic activity assay (coupled, fluorescent resorufin readout, with and without 10 mM glucose)
Assay type: biochemical
Details: human liver glycogen phosphorylase a enzymatic activity assay

SMILES	IC50
Cc1cc(C)c(NC(=O)Nc2cc3ccccc3cc2C(=O)NCCC(=O)O)c(C)c1 [Example 494, N-{[3-({[(2,4,6-trimethylphenyl)amino]carbonyl}amino)-2-naphthalenyl]carbonyl}-beta-alanine]	360 nM
Cc1cc(C)c(NC(=O)Nc2cc3ccccc3cc2C(=O)Nc2cccc(C(=O)O)c2)c(C)c1 [Example 495, 3-({[3-({[(2,4,6-trimethylphenyl)amino]carbonyl}amino)-2-naphthalenyl]carbonyl}amino)benzoic acid]	300 nM
O=C(Nc1cc2ccccc2cc1C(=O)Nc1cscc1C(=O)O)Nc1c(Cl)cccc1Cl [Example 497, 4-({[3-({[(2,6-dichlorophenyl)amino]carbonyl}amino)-2-naphthalenyl]carbonyl}amino)-3-thiophenecarboxylic acid]	17700 nM
Cc1cc(C)c(NC(=O)Nc2cc3ccccc3cc2C(=O)Nc2cc(C(=O)O)cc(C(=O)O)c2)c(C)c1 [Example 498, 5-({[3-({[(2,4,6-trimethylphenyl)amino]carbonyl}amino)-2-naphthalenyl]carbonyl}amino)-1,3-benzenedicarboxylic acid]	110 nM
Cc1cccc(C)c1NC(=O)Nc1cc2ccccc2cc1C(=O)NC(C)CC(=O)O (centres unmarked) [Example 500, 3-({[3-({[(2,6-dimethylphenyl)amino]carbonyl}amino)-2-naphthalenyl]carbonyl}amino)butanoic acid]	2140 nM
Cc1cc(C)c(NC(=O)Nc2cc3ccccc3cc2C(=O)N[C@H](C(=O)O)c2ccc(O)cc2)c(C)c1 [Example 501, (2S)-(4-hydroxyphenyl)({[3-({[(2,4,6-trimethylphenyl)amino]carbonyl}amino)-2-naphthalenyl]carbonyl}amino)ethanoic acid]	12 nM
Cc1cc(C)c(NC(=O)Nc2cc3ccccc3cc2C(=O)N[C@H](C(=O)O)C2CCC(O)CC2)c(C)c1 (stereo partly drawn) [Example 502, (2S)-(4-hydroxycyclohexyl)({[3-({[(2,4,6-trimethylphenyl)amino]carbonyl}amino)-2-naphthalenyl]carbonyl}amino)ethanoic acid]	13 nM
COC(=O)[C@H](CC(=O)N(C)C)NC(=O)c1ccc(-c2ccc(OC)cc2)cc1NC(=O)Nc1c(C)cc(C)cc1C [Example 503, methyl N^4,N^4-dimethyl-N^2-{[4′-(methyloxy)-3-({[(2,4,6-trimethylphenyl)amino]carbonyl}amino)-4-biphenylyl]carbonyl}-L-asparaginate]	11100 nM
COc1ccc(-c2ccc(C(=O)N[C@@H](CC(=O)N(C)C)C(=O)O)c(NC(=O)Nc3c(C)cc(C)cc3C)c2)cc1 [Example 504, N^4,N^4-dimethyl-N^2-{[4′-(methyloxy)-3-({[(2,4,6-trimethylphenyl)amino]carbonyl}amino)-4-biphenylyl]carbonyl}-L-asparagine]	32 nM
Cc1cc(CC2CC2)cc(C)c1NC(=O)Nc1cc(-c2cccc(F)c2)ccc1C(=O)N[C@H](C(=O)O)[C@@H](C)OC(C)(C)C [Example 505, N-({3-[({[4-(cyclopropylmethyl)-2,6-dimethylphenyl]amino}carbonyl)amino]-3′-fluoro-4-biphenylyl}carbonyl)-O-(1,1-dimethylethyl)-L-threonine]	3 nM
CCOC(=O)C[C@H](NC(=O)c1ccc(-c2cccc(F)c2)cc1NC(=O)Nc1c(C)cc(C)cc1C)C(=O)O [Example 506, (2S)-4-(ethyloxy)-2-({[3′-fluoro-3-({[(2,4,6-trimethylphenyl)amino]carbonyl}amino)-4-biphenylyl]carbonyl}amino)-4-oxobutanoic acid]	1090 nM
Cc1cc(C)c(NC(=O)Nc2cc(-c3cccc(F)c3)ccc2C(=O)N[C@@H](CC(=O)O)C(=O)O)c(C)c1 [Example 507, N-{[3′-fluoro-3-({[(2,4,6-trimethylphenyl)amino]carbonyl}amino)-4-biphenylyl]carbonyl}-L-aspartic acid]	53 nM
Cc1cc(C)c(NC(=O)Nc2cc3ccccc3cc2C(=O)N[C@@H](COCc2ccccc2)C(=O)O)c(C)c1 [Example 509, O-(Phenylmethyl)-N-{[3-({[(2,4,6-trimethylphenyl)amino]carbonyl}amino)-2-naphthalenyl]carbonyl}-L-serine]	28 nM
Cc1cc(C)c(NC(=O)Nc2cc(-c3ccc(F)c(F)c3)ccc2C(=O)N[C@@H](COCc2ccccc2)C(=O)O)c(C)c1 [Example 510, N-{[3′,4′-Difluoro-3-({[(2,4,6-trimethylphenyl)amino]carbonyl}amino)-4-biphenylyl]carbonyl}-O-(phenylmethyl)-L-serine]	42 nM
O=C(Nc1ccc(-c2ccccc2)cc1)Nc1cc2ccccc2cc1C(=O)NC1(C(=O)O)CCCCC1 [Example 513, 1-{[(3-{[(4-biphenylylamino)carbonyl]amino}-2-naphthalenyl)carbonyl]amino}cyclohexanecarboxylic acid]	7430 nM
Cc1cc(C)c(NC(=O)Nc2cc3ccccc3cc2C(=O)N[C@@H](Cc2ccccc2)C(=O)O)c(C)c1 [Example 514, N-{[3-({[(2,4,6-trimethylphenyl)amino]carbonyl}amino)-2-naphthalenyl]carbonyl}-L-phenylalanine]	52 nM
Cc1cc(C)c(NC(=O)Nc2cc(F)ccc2C(=O)N[C@@H](CCNC(=O)OC(C)(C)C)C(=O)O)c(C)c1 [Example 515, (2S)-4-({[(1,1-dimethylethyl)oxy]carbonyl}amino)-2-({[4-fluoro-2-({[(2,4,6-trimethylphenyl)amino]carbonyl}amino)phenyl]carbonyl}amino)butanoic acid]	1900 nM
Cc1cc(C)c(NC(=O)Nc2cc3ccccc3cc2C(=O)N[C@@H](CCNC(=O)OC(C)(C)C)C(=O)O)c(C)c1 [Example 516, (2S)-4-({[(1,1-dimethylethyl)oxy]carbonyl}amino)-2-({[3-({[(2,4,6-trimethylphenyl)amino]carbonyl}amino)-2-naphthalenyl]carbonyl}amino)butanoic acid]	89 nM
Cc1cc(-c2ccccc2)cc(C)c1NC(=O)Nc1cc2ccccc2cc1C(=O)NC1(C(=O)O)CCCCCC1 [Example 518, 1-({[3-({[(3,5-dimethyl-4-biphenylyl)amino]carbonyl}amino)-2-naphthalenyl]carbonyl}amino)cycloheptanecarboxylic acid]	340 nM
Cc1cc(C)c(NC(=O)Nc2cc(-c3ccc(F)c(F)c3)ccc2C(=O)N[C@H](C(=O)O)[C@@H](C)OC2CCC2)c(C)c1 [Example 519, O-cyclobutyl-N-{[3′,4′-difluoro-3-({[(2,4,6-trimethylphenyl)amino]carbonyl}amino)-4-biphenylyl]carbonyl}-L-threonine]	7 nM
Cc1cc(C)c(NC(=O)Nc2cc(F)ccc2C(=O)N[C@H](C(=O)O)[C@@H](C)OCc2ccccc2)c(C)c1 [Example 521, N-{[4-fluoro-2-({[(2,4,6-trimethylphenyl)amino]carbonyl}amino)phenyl]carbonyl}-O-(phenylmethyl)-L-threonine]	134 nM
Cc1cc(C)c(NC(=O)Nc2cc(-c3ccc(F)c(F)c3)ccc2C(=O)N[C@@H](C(=O)O)[C@H](C)OC(C)(C)C)c(C)c1 [Example 522, N-{[3′,4′-difluoro-3-({[(2,4,6-trimethylphenyl)amino]carbonyl}amino)-4-biphenylyl]carbonyl}-O-(1,1-dimethylethyl)-D-threonine]	675 nM
COc1ccccc1-c1ccc(C(=O)N[C@H](C(=O)O)C2CCCCC2)c(NC(=O)Nc2c(C)cc(C)cc2C)c1 [Example 523, (2S)-cyclohexyl({[2′-(methyloxy)-3-({[(2,4,6-trimethylphenyl)amino]carbonyl}amino)-4-biphenylyl]carbonyl}amino)ethanoic acid]	8 nM
COc1ccccc1-c1ccc(C(=O)N[C@H](C(=O)O)[C@@H](C)OC(C)(C)C)c(NC(=O)Nc2c(C)cc(C)cc2C)c1 [Example 524, O-(1,1-Dimethylethyl)-N-{[2′-(methyloxy)-3-({[(2,4,6-trimethylphenyl)amino]carbonyl}amino)-4-biphenylyl]carbonyl}-L-threonine]	11 nM
Cc1cc(C)c(NC(=O)Nc2cc(-c3cc(F)cc(F)c3)ccc2C(=O)N[C@H](C(=O)O)[C@@H](C)OC(C)(C)C)c(C)c1 [Example 525, N-{[3′,5′-Difluoro-3-({[(2,4,6-trimethylphenyl)amino]carbonyl}amino)-4-biphenylyl]carbonyl}-O-(1,1-dimethylethyl)-L-threonine]	7 nM
Cc1cc(C)c(NC(=O)Nc2cc(-c3cc(F)cc(F)c3)ccc2C(=O)N[C@H](C(=O)O)C2CCCCC2)c(C)c1 [Example 526, (2S)-Cyclohexyl({[3′,5′-difluoro-3-({[(2,4,6-trimethylphenyl)amino]carbonyl}amino)-4-biphenylyl]carbonyl}amino)ethanoic acid]	5 nM
